In ChEMBL document CHEMBL1151449, “In vitro activity of DC-159a, a new broad-spectrum fluoroquinolone, compared with that of other agents against drug-susceptible and -resistant pneumococci” (2008):

Columns and labels:
Format in all cases: functional
Streptococcus pneumoniae [1] = test: Antibacterial activity against macrolide-, quinolone-susceptible and penicillin-intermediate Streptococcus pneumoniae HMC 100 by broth microdilution method
Streptococcus pneumoniae [2] = test: Antibacterial activity against Streptococcus pneumoniae HMC 1066 harboring S81F mutation in quinolone-resistant determining regions of GyrA gene, S79F mutation in QRDR of ParC gene and I460V mutation in QRDR of ParE gene by agar dilution method
Streptococcus pneumoniae [3] = test: Antibacterial activity against Streptococcus pneumoniae HMC 1541 harboring S81Y mutation in quinolone-resistant determining regions of GyrA gene, S79F, K137N mutation in QRDR of ParC gene and I460V mutation in QRDR of ParE gene by agar dilution method
Streptococcus pneumoniae [4] = test: Antibacterial activity against quinolone-resistant Streptococcus pneumoniae […] by agar dilution method
Streptococcus pneumoniae [5] = test: Antibacterial activity against Streptococcus pneumoniae HMC 1062 harboring S81F mutation in quinolone-resistant determining regions of GyrA gene, S79F mutation in QRDR of ParC gene and I460V mutation in QRDR of ParE gene by agar dilution method
Streptococcus pneumoniae [6] = test: Antibacterial activity against penicillin-, macrolide-susceptible and quinolone-resistant Streptococcus pneumoniae HMC 1074 harboring S81F mutation in quinolone-resistant determining regions of GyrA gene, S79F mutation in QRDR of ParC gene and I460V mutation in QRDR of ParE gene after 50 passages by broth microdilution method
Streptococcus pneumoniae [7] = test: Antibacterial activity against penicillin- and quinolone-susceptible Streptococcus pneumoniae HMC 5055 expressing mefA by broth microdilution method
Streptococcus pneumoniae [8] = test: Antibacterial activity against penicillin-, macrolide- and quinolone-susceptible Streptococcus pneumoniae HMC 63 harboring S81F mutation in quinolone-resistant determining regions of GyrA gene, D83Y mutation in QRDR of ParC gene and I460V mutation in QRDR of ParE gene after 34 passages with gemifloxacin measured after 10 daily antibiotic-free subculturing by multi-step resistance selection technique
Streptococcus pneumoniae [9] = test: Antibacterial activity against Streptococcus pneumoniae HMC 1055 harboring S81F mutation in quinolone-resistant determining regions of GyrA gene, S79F, K137N mutation in QRDR of ParC gene and I460V mutation in QRDR of ParE gene by agar dilution method
Streptococcus pneumoniae [10] = test: Antibacterial activity against macrolide-, quinolone-susceptible and penicillin-intermediate Streptococcus pneumoniae HMC 99 after 50 passages by broth microdilution method
Streptococcus pneumoniae [11] = test: Antibacterial activity against penicillin-intermediate Streptococcus pneumoniae […] by agar dilution method
Streptococcus pneumoniae [12] = test: Antibacterial activity against Streptococcus pneumoniae HMC 1074 harboring S81F mutation in quinolone-resistant determining regions of GyrA gene, S79F mutation in QRDR of ParC gene and I460V mutation in QRDR of ParE gene by agar dilution method
Streptococcus pneumoniae [13] = test: Antibacterial activity against macrolide-, quinolone-susceptible and penicillin-intermediate Streptococcus pneumoniae HMC 100 harboring S79Y mutation in quinolone-resistant determining regions of ParC gene after 34 passages with gemifloxacin measured after 10 daily antibiotic-free subculturing by multi-step resistance selection technique
Streptococcus pneumoniae [14] = test: Antibacterial activity against Streptococcus pneumoniae HMC 1147 harboring S81F mutation in quinolone-resistant determining regions of GyrA gene, S79F mutation in QRDR of ParC gene and I460V mutation in QRDR of ParE gene showing efflux to gemifloxacin by agar dilution method
Streptococcus pneumoniae [15] = test: Antibacterial activity against penicillin-resistant and quinolone-susceptible Streptococcus pneumoniae HMC 228 expressing ermB by broth microdilution method
Streptococcus pneumoniae [16] = test: Antibacterial activity against Streptococcus pneumoniae HMC 1073 harboring S81F mutation in quinolone-resistant determining regions of GyrA gene, and I460V mutation in QRDR of ParE gene by agar dilution method
Streptococcus pneumoniae [17] = test: Antibacterial activity against Streptococcus pneumoniae HMC 5041 harboring S81F and S79F mutation in quinolone-resistant determining regions of GyrA and ParC genes respectively by agar dilution method
Streptococcus pneumoniae [18] = test: Antibacterial activity against penicillin- and quinolone-susceptible Streptococcus pneumoniae HMC 5055 expressing mefA after 50 passages by broth microdilution method
Streptococcus pneumoniae [19] = test: Antibacterial activity against penicillin-resistant and quinolone-susceptible Streptococcus pneumoniae HMC 3583 expressing mefA and harboring S81F mutation in quinolone-resistant determining regions of GyrA gene, D83N mutation in QRDR of ParC gene and I460V mutation in QRDR of ParE gene after 44 passages with levofloxacin measured after 10 daily antibiotic-free subculturing by multi-step resistance selection technique
Streptococcus pneumoniae [20] = test: Antibacterial activity against Streptococcus pneumoniae HMC 1139 harboring S81F mutation in quinolone-resistant determining regions of GyrA gene, S79F, K137N mutation in QRDR of ParC gene and I460V mutation in QRDR of ParE gene by agar dilution method
Streptococcus pneumoniae [21] = test: Antibacterial activity against penicillin-susceptible, quinolone-resistant Streptococcus pneumoniae 1072 expressing ermB and harboring S81F mutation in quinolone-resistant determining regions of GyrA gene, S79Y mutation in QRDR of ParC gene and I460V mutation in QRDR of ParE gene by broth microdilution method
Streptococcus pneumoniae [22] = test: Antibacterial activity against penicillin-resistant Streptococcus pneumoniae […] by agar dilution method
Streptococcus pneumoniae [23] = test: Antibacterial activity against penicillin-, macrolide- and quinolone-susceptible Streptococcus pneumoniae HMC 63 by broth microdilution method
Streptococcus pneumoniae [24] = test: Antibacterial activity against Streptococcus pneumoniae HMC 1068 harboring E85K mutation in quinolone-resistant determining regions of GyrA gene, S79Y, K137N mutation in QRDR of ParC gene and I460V mutation in QRDR of ParE gene showing efflux to ciprofloxacin, levofloxacin by agar dilution method
Streptococcus pneumoniae [25] = test: Antibacterial activity against Streptococcus pneumoniae HMC 3041 after 50 passages by broth microdilution method
Streptococcus pneumoniae [26] = test: Antibacterial activity against Streptococcus pneumoniae HMC 1071 harboring S81F mutation in quinolone-resistant determining regions of GyrA gene and S79F, K137N mutation in QRDR of ParC gene by agar dilution method
Streptococcus pneumoniae [27] = test: Antibacterial activity against Streptococcus pneumoniae HMC 2527 harboring S81Y mutation in quinolone-resistant determining regions of GyrA gene, S79F, K137N mutation in QRDR of ParC gene and I460V mutation in QRDR of ParE gene by agar dilution method
Streptococcus pneumoniae [28] = test: Antibacterial activity against Streptococcus pneumoniae HMC 1058 harboring S79F, K137N mutation in quinolone-resistant determining regions of ParC gene and 460V mutation in QRDR of ParE gene by agar dilution method
Streptococcus pneumoniae [29] = test: Antibacterial activity against penicillin-resistant and quinolone-susceptible Streptococcus pneumoniae HMC 3583 expressing mefA after 50 passages by broth microdilution method

COc1c(N2CCNC(C)C2)c(F)cc2c(=O)c(C(=O)O)cn(C3CC3)c12 (stereo not drawn) [GATIFLOXACIN]
0.25 µg/mL: MIC (Streptococcus pneumoniae [7])
2 µg/mL: MIC (Streptococcus pneumoniae [28])
8 µg/mL: MIC50 (Streptococcus pneumoniae [4]) | MIC90 (Streptococcus pneumoniae [4]) | MIC (Streptococcus pneumoniae [6]) | MIC (Streptococcus pneumoniae [8]) | MIC (Streptococcus pneumoniae [9]) | MIC (Streptococcus pneumoniae [14]) | MIC (Streptococcus pneumoniae [20]) | MIC (Streptococcus pneumoniae [21]) | MIC (Streptococcus pneumoniae [24]) | MIC (Streptococcus pneumoniae [26])
4 µg/mL: MIC (Streptococcus pneumoniae [2]) | MIC (Streptococcus pneumoniae [3]) | MIC (Streptococcus pneumoniae [12]) | MIC (Streptococcus pneumoniae [13]) | MIC (Streptococcus pneumoniae [16]) | MIC (Streptococcus pneumoniae [17]) | MIC (Streptococcus pneumoniae [19]) | MIC90 (Streptococcus pneumoniae [22])
0.5 µg/mL: MIC (Streptococcus pneumoniae [1]) | MIC (Streptococcus pneumoniae [10]) | MIC50 (Streptococcus pneumoniae [11]) | MIC90 (Streptococcus pneumoniae [11]) | MIC (Streptococcus pneumoniae [15]) | MIC (Streptococcus pneumoniae [18]) | MIC50 (Streptococcus pneumoniae [22]) | MIC (Streptococcus pneumoniae [23]) | MIC (Streptococcus pneumoniae [25])
16 µg/mL: MIC (Streptococcus pneumoniae [5]) | MIC (Streptococcus pneumoniae [27])

CO/N=C1\CN(c2nc3c(cc2F)c(=O)c(C(=O)O)cn3C2CC2)CC1CN (stereo not drawn) [GEMIFLOXACIN]
1 µg/mL: MIC90 (Streptococcus pneumoniae [4]) | MIC (Streptococcus pneumoniae [5]) | MIC (Streptococcus pneumoniae [13]) | MIC (Streptococcus pneumoniae [14])
0.03 µg/mL: MIC (Streptococcus pneumoniae [7]) | MIC50 (Streptococcus pneumoniae [11]) | MIC50 (Streptococcus pneumoniae [22]) | MIC (Streptococcus pneumoniae [25])
0.06 µg/mL: MIC (Streptococcus pneumoniae [1]) | MIC90 (Streptococcus pneumoniae [11]) | MIC (Streptococcus pneumoniae [15]) | MIC (Streptococcus pneumoniae [18]) | MIC (Streptococcus pneumoniae [23])
0.5 µg/mL: MIC (Streptococcus pneumoniae [8]) | MIC (Streptococcus pneumoniae [9]) | MIC (Streptococcus pneumoniae [12]) | MIC (Streptococcus pneumoniae [17]) | MIC (Streptococcus pneumoniae [21]) | MIC (Streptococcus pneumoniae [24]) | MIC (Streptococcus pneumoniae [26])
0.125 µg/mL: MIC (Streptococcus pneumoniae [10]) | MIC (Streptococcus pneumoniae [16]) | MIC (Streptococcus pneumoniae [28])
0.25 µg/mL: MIC (Streptococcus pneumoniae [2]) | MIC (Streptococcus pneumoniae [3]) | MIC50 (Streptococcus pneumoniae [4]) | MIC (Streptococcus pneumoniae [19]) | MIC (Streptococcus pneumoniae [20]) | MIC90 (Streptococcus pneumoniae [22]) | MIC (Streptococcus pneumoniae [27])

COc1c(N2C[C@@H]3CCCN[C@@H]3C2)c(F)cc2c(=O)c(C(=O)O)cn(C3CC3)c12 [MOXIFLOXACIN]
0.125 µg/mL: MIC (Streptococcus pneumoniae [18])
2 µg/mL: MIC (Streptococcus pneumoniae [2]) | MIC (Streptococcus pneumoniae [3]) | MIC (Streptococcus pneumoniae [12]) | MIC (Streptococcus pneumoniae [13]) | MIC (Streptococcus pneumoniae [16])
0.25 µg/mL: MIC (Streptococcus pneumoniae [1]) | MIC (Streptococcus pneumoniae [7]) | MIC (Streptococcus pneumoniae [23]) | MIC (Streptococcus pneumoniae [25])
8 µg/mL: MIC (Streptococcus pneumoniae [6])
4 µg/mL: MIC50 (Streptococcus pneumoniae [4]) | MIC90 (Streptococcus pneumoniae [4]) | MIC (Streptococcus pneumoniae [5]) | MIC (Streptococcus pneumoniae [8]) | MIC (Streptococcus pneumoniae [9]) | MIC (Streptococcus pneumoniae [14]) | MIC (Streptococcus pneumoniae [17]) | MIC (Streptococcus pneumoniae [19]) | MIC (Streptococcus pneumoniae [20]) | MIC (Streptococcus pneumoniae [21]) | MIC (Streptococcus pneumoniae [24]) | MIC (Streptococcus pneumoniae [26]) | MIC (Streptococcus pneumoniae [27])
0.5 µg/mL: MIC (Streptococcus pneumoniae [29]) | MIC (Streptococcus pneumoniae [28])
0.12 µg/mL: MIC (Streptococcus pneumoniae [15])
